Test results taken from paper PMC5614982, “Impact of Gastric H^+/K^+-ATPase rs2733743 on the Intragastric pH-Values of Dexlansoprazole Injection in Chinese Subjects” (Frontiers in Pharmacology, 2017).
Marks after values point to notes of the source that are not given here.

Tested on: intragastric pH
Test: 24-h intragastric pH monitoring after single intravenous dexlansoprazole in healthy Chinese subjects
Type: in vivo, human
Details: for AUCτ 1−τ 2pH−t: second AUC line
Procedure: Dexlansoprazole injection (30 mg per vial) used in the PK and PD study was manufactured by Nanjing Yoko Pharma Co., Ltd. (Nanjing, China). Subjects received an intravenous infusion of 20 or 30 mg dexlansoprazole injection in sterile saline solution (100 mL/h, 60 min). The study drug was administrated with an infusing pump (SA213, Lifepum, Beijing, China) and given through an intravenous catheter in the antecubital vein opposite to the one from which blood samples were taken.
An ambulatory pH recorder (Orion II, MMS, USA) with a disposable pH catheter (VersaFlex, MMS, USA) was used to monitor intragastric pH. The electrode was placed in water for at least 10 min and then calibrated using standard buffer solutions (pH 1.07 and 7.01) before intubation. Both calibration and intubation processes were conducted under the guidance of MMS Virtual Instructor Program. The catheter, trans nasally placed 10 cm under the lower esophageal sphincter, was identified by a sharp decrease in pH (Wang et al., [2010], [2011]). Subjects were intubated on baseline and the day of dosing at about 7:30 a.m., and the intragastric pH data were recorded continuously for 24 h from 8:00 a.m. Intragastric pH was sampled every second, and the data were stored in a MMS Database program (MMS, USA). The PD parameters including Median (pH), Mean (pH), TpH≥3 (%), TpH≥4 (%), TpH≥6 (%), TpH≥6, and AUC^pH−t were analyzed by the MMS Database program.
Median (pH) and mean (pH) were well-investigated in most studies, and the percentage time of pH ≥ 4 (or pH ≥ 4 holding time ratio) was the benchmark for predicting clinical efficacy of PPIs in treating acid-related diseases (Metz et al., [2009]). Novel parameter TpH≥6 (time to first gastric pH ≥ 6, min) and AUCτ 1-τ 2pH-t (area under pH-time curve from τ1 to τ2, pH·s) were defined to evaluate the velocity and extent of pharmacodynamics with more accuracy. All parameters were calculated and compared according to time periods of 0–24, 0–4, 4–10, 10–14, and 14–24 h post dosing.
The parameter AUCτ 1-τ 2pH-t was calculated as follows:
Where t represented the time duration measured by seconds, AUCτ 1-τ 210-t was the area between the pH line = 10 and the pH-time curve, which was generated by the MMS software.
Baseline-adjusted PD parameters were calculated as follows: for example, ΔAUC^pH−t = AUC^pH−t − AUC^pH−tbaseline, ΔMean (pH) = Mean (pH) − Mean (pH)^baseline, and ΔMedian (pH) = Median (pH) − Median (pH)^baseline.

[1] = 30 mg iv, H+/K+-ATPase Het (n = 10), 0–4 h
[2] = 30 mg iv, H+/K+-ATPase Het (n = 10), 0–24 h
[3] = 30 mg iv, H+/K+-ATPase Het (n = 10), 14–24 h
[4] = 30 mg iv, H+/K+-ATPase Hom (n = 10), 0–4 h
[5] = 30 mg iv, H+/K+-ATPase Hom (n = 10), 0–24 h
[6] = 30 mg iv, H+/K+-ATPase Hom (n = 10), 14–24 h
[7] = 30 mg iv, H+/K+-ATPase WT (n = 8), 0–4 h
[8] = 30 mg iv, H+/K+-ATPase WT (n = 8), 0–24 h
[9] = 30 mg iv, H+/K+-ATPase WT (n = 8), 14–24 h

Compound: Cc1c(OCC(F)(F)F)ccnc1C[S@@+]([O-])c1nc2ccccc2[nH]1 [dexlansoprazole]
- ΔMedian (pH) [1]: 3.3 ± 2.0^c pH
- ΔTpH≥3(%) [1]: 52.6 ± 22.2%
- ΔTpH≥4 (%) [1]: 51.0 ± 20.6%
- ΔTpH≥6(%) [1]: 46.0 ± 33.2%
- Mean (pH) [2]: 5.9 ± 1.5 pH
- Median (pH) [2]: 6.0 ± 1.9 pH
- TpH≥3(%) [2]: 81.0 ± 20.9%
- TpH≥4(%) [2]: 74.9 ± 25.7%
- TpH≥6(%) [2]: 59.2 ± 25.9%
- ΔMean (pH) [2]: 3.0 ± 1.0^c pH
- ΔMedian (pH) [2]: 4.0 ± 1.6 pH
- ΔTpH≥3(%) [2]: 51.8 ± 14.2^c %
- ΔTpH≥4 (%) [2]: 54.9 ± 19.1^c %
- ΔTpH≥6(%) [2]: 47.2 ± 17.0^c %
- Mean (pH) [3]: 5.1 ± 1.9 pH
- Median (pH) [3]: 4.9 ± 2.3 pH
- TpH≥3(%) [3]: 72.0 ± 33.7%
- TpH≥4(%) [3]: 63.2 ± 38.0%
- TpH≥6(%) [3]: 41.0 ± 26.2%
- ΔMean (pH) [3]: 1.9 ± 0.9^c pH
- ΔMedian (pH) [3]: 2.1 ± 1.9^c pH
- ΔTpH≥3(%) [3]: 44.1 ± 21.3^c %
- ΔTpH≥4 (%) [3]: 37.7 ± 20.5^c %
- ΔTpH≥6(%) [3]: 17.4 ± 11.2^c %
- Mean (pH) [4]: 6.2 ± 0.8 pH
- Median (pH) [4]: 7.5 ± 0.6 pH
- TpH≥3(%) [4]: 78.0 ± 7.4%
- TpH≥4(%) [4]: 73.1 ± 12.6%
- TpH≥6(%) [4]: 70.3 ± 14.7%
- ΔMean (pH) [4]: 4.2 ± 0.3^a pH
- ΔMedian (pH) [4]: 5.8 ± 0.3^a^,^b pH
- ΔTpH≥3(%) [4]: 68.4 ± 8.6%
- ΔTpH≥4 (%) [4]: 67.5 ± 8.7%
- ΔTpH≥6(%) [4]: 67.9 ± 12.4%
- Mean (pH) [5]: 7.0 ± 0.6 pH
- Median (pH) [5]: 7.5 ± 0.6 pH
- TpH≥3(%) [5]: 95.7 ± 1.3%
- TpH≥4(%) [5]: 91.7 ± 4.9%
- TpH≥6(%) [5]: 80.2 ± 7.5%
- ΔMean (pH) [5]: 4.5 ± 0.7^a^,^b pH
- ΔMedian (pH) [5]: 5.5 ± 0.5^a pH
- ΔTpH≥3(%) [5]: 75.4 ± 7.6^a^,^b %
- ΔTpH≥4 (%) [5]: 79.9 ± 6.6^b %
- ΔTpH≥6(%) [5]: 75.3 ± 9.3^a^,^b %
- Mean (pH) [6]: 6.6 ± 0.8 pH
- Median (pH) [6]: 6.7 ± 1.1 pH
- TpH≥3(%) [6]: 98.5 ± 1.8%
- TpH≥4(%) [6]: 91.0 ± 10.4%
- TpH≥6(%) [6]: 66.9 ± 17.6%
- ΔMean (pH) [6]: 4.0 ± 1.1^b pH
- ΔMedian (pH) [6]: 4.7 ± 1.0^b pH
- ΔTpH≥3(%) [6]: 84.0 ± 9.1^a^,^b %
- ΔTpH≥4 (%) [6]: 80.9 ± 11.2^a^,^b %
- ΔTpH≥6(%) [6]: 59.2 ± 21.4^a^,^b %
- Mean (pH) [7]: 5.1 ± 1.4 pH
- Median (pH) [7]: 5.6 ± 2.0 pH
- TpH≥3(%) [7]: 69.5 ± 24.9%
- TpH≥4(%) [7]: 63.3 ± 26.8%
- TpH≥6(%) [7]: 46.8 ± 27.3%
- ΔMean (pH) [7]: 2.9 ± 1.0^c pH
- ΔMedian (pH) [7]: 3.5 ± 1.7^c pH
- ΔTpH≥3(%) [7]: 54.0 ± 28.3%
- ΔTpH≥4 (%) [7]: 53.6 ± 23.3%
- ΔTpH≥6(%) [7]: 42.6 ± 23.6%
- Mean (pH) [8]: 5.7 ± 0.9 pH
- Median (pH) [8]: 6.0 ± 1.1 pH
- TpH≥3(%) [8]: 81.1 ± 14.2%
- TpH≥4(%) [8]: 75.6 ± 17.1%
- TpH≥6(%) [8]: 57.1 ± 18.8%
- ΔMean (pH) [8]: 3.0 ± 1.0^c pH
- ΔMedian (pH) [8]: 3.7 ± 1.0^c pH
- ΔTpH≥3(%) [8]: 52.6 ± 21.0^c %
- ΔTpH≥4 (%) [8]: 57.3 ± 22.3%
- ΔTpH≥6(%) [8]: 51.2 ± 17.1^c %
- Mean (pH) [9]: 5.1 ± 1.3 pH
- Median (pH) [9]: 4.7 ± 1.7 pH
- TpH≥3(%) [9]: 70.7 ± 27.8%
- TpH≥4(%) [9]: 62.5 ± 31.5%
- TpH≥6(%) [9]: 43.7 ± 25.6%
- ΔMean (pH) [9]: 2.6 ± 1.3 pH
- ΔMedian (pH) [9]: 2.8 ± 1.7 pH
- ΔTpH≥3(%) [9]: 56.6 ± 27.3^c %
- ΔTpH≥4 (%) [9]: 50.7 ± 30.9^c %
- ΔTpH≥6(%) [9]: 33.3 ± 25.5^c %
- AUCτ 1−τ 2pH−t (20 mg iv, 0–4 h): 501 ± 268 pH·h
- AUCτ 1−τ 2pH−t (20 mg iv, 10–14 h): 784 ± 346 pH·h
- AUCτ 1−τ 2pH−t (20 mg iv, 14–24 h): 942 ± 632 pH·h
- AUCτ 1−τ 2pH−t (30 mg iv, 0–4 h): 793 ± 268 pH·h
- AUCτ 1−τ 2pH−t (30 mg iv, CYP2C19 EM (n = 11), 0–4 h): 762 ± 250 pH·h
- AUCτ 1−τ 2pH−t (30 mg iv, CYP2C19 EMs, H+/K+-ATPase Het (n = 8), 0–4 h): 531 ± 194^c pH·h
- AUCτ 1−τ 2pH−t (30 mg iv, CYP2C19 EMs, H+/K+-ATPase Het (n = 8), 14–24 h): 755 ± 198^c pH·h
- AUCτ 1−τ 2pH−t (30 mg iv, CYP2C19 EMs, H+/K+-ATPase WT (n = 6), 0–4 h): 817 ± 157 pH·h
- AUCτ 1−τ 2pH−t (30 mg iv, CYP2C19 EMs, H+/K+-ATPase WT (n = 6), 14–24 h): 968 ± 553^c pH·h
- AUCτ 1−τ 2pH−t (30 mg iv, CYP2C19 IM (n = 10), 0–4 h): 789 ± 405 pH·h
- AUCτ 1−τ 2pH−t (30 mg iv, CYP2C19 PM (n = 7), 0–4 h): 837 ± 235 pH·h
- AUCτ 1−τ 2pH−t [1]: 727 ± 297 pH·h
- AUCτ 1−τ 2pH−t [7]: 681 ± 248^c pH·h
